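Following 48 hours of exposure in 96-well plates, responses at five concentrations were used to interpolate endpoints linearly. Here, GI50 denotes the concentration required for 50% inhibition of growth.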 The source made the active and inactive calls. No stated cut-off is given here; in the data, active = GI50 up to about 1.1 µM and inactive = higher.
Experiments:
Experiment in all cases: NCI tumour cell line growth inhibition, 48 h
U-251 = system: U-251
DMS-273 = system: DMS-273
HT-29 = system: HT-29
SF-539 = system: SF-539
MDA-N = system: MDA-N
PC-3 = system: PC-3
HCC 2998 = system: HCC 2998
LXFL 529 = system: LXFL 529
SR = system: SR
IGROV-1 = system: IGROV-1
RXF 393 = system: RXF 393
SK-MEL-28 = system: SK-MEL-28
M19-MEL = system: M19-MEL
HOP-92 = system: HOP-92
SK-MEL-5 = system: SK-MEL-5
DMS-114 = system: DMS-114
HOP-18 = system: HOP-18
HL-60 = system: HL-60
A498 = system: A498
UO-31 = system: UO-31
DU-145 = system: DU-145
SNB-75 = system: SNB-75
SK-OV-3 = system: SK-OV-3
CCRF-CEM = system: CCRF-CEM
DLD-1 = system: DLD-1
EKVX = system: EKVX
NCI-H226 = system: NCI-H226
SW-620 = system: SW-620
SNB-19 = system: SNB-19
LOX IMVI = system: LOX IMVI
OVCAR-4 = system: OVCAR-4
SF-268 = system: SF-268
UACC-62 = system: UACC-62
SF-295 = system: SF-295
K562 = system: K562
HCT-116 = system: HCT-116
NCI-H23 = system: NCI-H23
UACC-257 = system: UACC-257
CAKI-1 = system: CAKI-1
KM-20L2 = system: KM-20L2
OVCAR-3 = system: OVCAR-3
Hs-578T = system: Hs-578T
NCI-H522 = system: NCI-H522
HCT-15 = system: HCT-15
T47D = system: T47D
MCF7 = system: MCF7
RPMI-8226 = system: RPMI-8226
NCI-H460 = system: NCI-H460
SN12C = system: SN12C
SK-MEL-2 = system: SK-MEL-2
KM12 = system: KM12
SNB-78 = system: SNB-78
Malme-3M = system: Malme-3M
M14 = system: M14
786-0 = system: 786-0
TK-10 = system: TK-10
COLO 205 = system: COLO 205
BT-549 = system: BT-549
OVCAR-8 = system: OVCAR-8
A549 = system: A549
HOP-62 = system: HOP-62
ACHN = system: ACHN
MOLT-4 = system: MOLT-4
MDA-MB-435 = system: MDA-MB-435
RXF 631 = system: RXF 631
MDA-MB-231 = system: MDA-MB-231
OVCAR-5 = system: OVCAR-5
XF498 = system: XF498

With `CCCCCCCCCCCCCC(=O)CBr` the GI50 (U-251) was 14.6 µM (inactive), the GI50 (DMS-273) was > 10 µM (inactive) and the GI50 (HT-29) was 15.9 µM (inactive). The GI50 (SF-539) was 13.2 µM (inactive), the GI50 (MDA-N) was 12.3 µM (inactive) and the GI50 (PC-3) was 3.62 µM (inactive). For the same molecule, the GI50 (HCC 2998) was 15.8 µM (inactive), the GI50 (LXFL 529) was 3.72 µM (inactive) and the GI50 (SR) was 1.04 µM (active). For the same molecule, the GI50 (IGROV-1) was 5.79 µM (inactive), the GI50 (RXF 393) was 3.3 µM (inactive) and the GI50 (SK-MEL-28) was 16.5 µM (inactive). The GI50 (M19-MEL) was 9.25 µM (inactive), the GI50 (HOP-92) was 2.36 µM (inactive) and the GI50 (SK-MEL-5) was 12.1 µM (inactive). The GI50 (DMS-114) was 3.9 µM (inactive), the GI50 (HOP-18) was 14.7 µM (inactive) and the GI50 (HL-60) was 1.03 µM (active). For the same molecule, the GI50 (A498) was 17.4 µM (inactive), the GI50 (UO-31) was 8.93 µM (inactive) and the GI50 (DU-145) was 18.6 µM (inactive). The GI50 (SNB-75) was 6.03 µM (inactive), the GI50 (SK-OV-3) was 24 µM (inactive) and the GI50 (CCRF-CEM) was 0.467 µM (active). The GI50 (DLD-1) was 11.7 µM (inactive), the GI50 (EKVX) was 18.7 µM (inactive) and the GI50 (NCI-H226) was 17.4 µM (inactive). The GI50 (SW-620) was 12 µM (inactive), the GI50 (SNB-19) was 16.9 µM (inactive) and the GI50 (LOX IMVI) was 3.83 µM (inactive). For the same molecule, the GI50 (OVCAR-4) was 14.2 µM (inactive), the GI50 (SF-268) was 12.2 µM (inactive) and the GI50 (UACC-62) was 9.79 µM (inactive). For the same molecule, the GI50 (SF-295) was 15.4 µM (inactive), the GI50 (K562) was 3.53 µM (inactive) and the GI50 (HCT-116) was 12.3 µM (inactive). The GI50 (NCI-H23) was 9.77 µM (inactive), the GI50 (UACC-257) was 13.2 µM (inactive) and the GI50 (CAKI-1) was 1.1 µM (active). For the same molecule, the GI50 (KM-20L2) was 15.6 µM (inactive), the GI50 (OVCAR-3) was 18.3 µM (inactive) and the GI50 (Hs-578T) was 5.64 µM (inactive). The GI50 (NCI-H522) was 1.84 µM (inactive), the GI50 (HCT-15) was 11.1 µM and the GI50 (T47D) was 3.94 µM (inactive). The GI50 (MCF7) was 13.4 µM (inactive), the GI50 (RPMI-8226) was 1.47 µM (inactive) and the GI50 (NCI-H460) was 18 µM (inactive). For the same molecule, the GI50 (SN12C) was 16.6 µM (inactive), the GI50 (SK-MEL-2) was 11.5 µM (inactive) and the GI50 (KM12) was 12.1 µM (inactive). The GI50 (SNB-78) was 14.2 µM (inactive), the GI50 (Malme-3M) was 9.06 µM (inactive) and the GI50 (M14) was 10.8 µM (inactive). For the same molecule, the GI50 (786-0) was 5.13 µM (inactive), the GI50 (TK-10) was 15.8 µM (inactive) and the GI50 (COLO 205) was 14.9 µM (inactive). The GI50 (BT-549) was 8.71 µM (inactive), the GI50 (OVCAR-8) was 14 µM (inactive) and the GI50 (A549) was 22.5 µM (inactive). The GI50 (HOP-62) was 21.5 µM (inactive), the GI50 (ACHN) was 15 µM (inactive) and the GI50 (MOLT-4) was 0.764 µM (active). The GI50 (MDA-MB-435) was 16.7 µM (inactive), the GI50 (RXF 631) was 16.3 µM (inactive) and the GI50 (MDA-MB-231) was 16.3 µM (inactive). The GI50 (OVCAR-5) was 22.1 µM (inactive).

With `O=C1NC(=O)C(=Cc2c3ccccc3cc3ccccc23)C(=O)N1` the GI50 (U-251) was > 100 µM (inactive), the GI50 (DMS-273) was > 100 µM (inactive) and the GI50 (HT-29) was 55.1 µM (inactive). The GI50 (SF-539) was > 100 µM (inactive), the GI50 (LXFL 529) was 79.4 µM (inactive) and the GI50 (IGROV-1) was > 100 µM (inactive). The GI50 (RXF 393) was > 100 µM (inactive), the GI50 (SK-MEL-28) was > 100 µM (inactive) and the GI50 (M19-MEL) was > 100 µM (inactive). For the same molecule, the GI50 (HOP-92) was > 100 µM (inactive), the GI50 (SK-MEL-5) was > 100 µM (inactive) and the GI50 (HOP-18) was 83.8 µM (inactive). The GI50 (HL-60) was 44.7 µM (inactive), the GI50 (A498) was > 100 µM (inactive) and the GI50 (UO-31) was > 100 µM (inactive). The GI50 (SK-OV-3) was > 100 µM (inactive), the GI50 (CCRF-CEM) was 59.3 µM (inactive) and the GI50 (SW-620) was > 100 µM (inactive). The GI50 (SNB-19) was > 100 µM (inactive), the GI50 (LOX IMVI) was > 100 µM (inactive) and the GI50 (SF-268) was > 100 µM (inactive). For the same molecule, the GI50 (UACC-62) was > 100 µM (inactive), the GI50 (K562) was 71.3 µM (inactive) and the GI50 (HCT-116) was > 100 µM (inactive). For the same molecule, the GI50 (NCI-H23) was > 100 µM (inactive), the GI50 (CAKI-1) was 47.2 µM (inactive) and the GI50 (KM-20L2) was > 100 µM (inactive). The GI50 (NCI-H522) was > 100 µM (inactive), the GI50 (HCT-15) was > 100 µM and the GI50 (RPMI-8226) was 31.6 µM (inactive). The GI50 (NCI-H460) was > 100 µM (inactive), the GI50 (SN12C) was > 100 µM (inactive) and the GI50 (M14) was > 100 µM (inactive). The GI50 (786-0) was > 100 µM (inactive), the GI50 (TK-10) was > 100 µM (inactive) and the GI50 (COLO 205) was > 100 µM (inactive). The GI50 (OVCAR-8) was > 100 µM (inactive), the GI50 (A549) was > 100 µM (inactive) and the GI50 (HOP-62) was > 100 µM (inactive). The GI50 (ACHN) was > 100 µM (inactive), the GI50 (MOLT-4) was 55.5 µM (inactive) and the GI50 (XF498) was > 100 µM (inactive). For the same molecule, the GI50 (RXF 631) was > 100 µM (inactive).

From ChEMBL document CHEMBL1201862, “PubChem BioAssay data set” (2004)
